Source: patent US11591355B2 (Peloton Therapeutics, Inc., priority 2017, dated 2023)

Tests used:
[1] = target: T1, Human CD73 (Homo sapiens, UniProt P21589); test: CD73 Enzyme Assay; format: biochemical; settings: 0.25 nM hCD73, 25 μM AMP, kinetic read at 360 nm; read-out: CD73 Enzyme Assay IC50
T1 construct: purchased R&D Systems; host or cells: CHO cells
T1 sequence (P21589 27-549): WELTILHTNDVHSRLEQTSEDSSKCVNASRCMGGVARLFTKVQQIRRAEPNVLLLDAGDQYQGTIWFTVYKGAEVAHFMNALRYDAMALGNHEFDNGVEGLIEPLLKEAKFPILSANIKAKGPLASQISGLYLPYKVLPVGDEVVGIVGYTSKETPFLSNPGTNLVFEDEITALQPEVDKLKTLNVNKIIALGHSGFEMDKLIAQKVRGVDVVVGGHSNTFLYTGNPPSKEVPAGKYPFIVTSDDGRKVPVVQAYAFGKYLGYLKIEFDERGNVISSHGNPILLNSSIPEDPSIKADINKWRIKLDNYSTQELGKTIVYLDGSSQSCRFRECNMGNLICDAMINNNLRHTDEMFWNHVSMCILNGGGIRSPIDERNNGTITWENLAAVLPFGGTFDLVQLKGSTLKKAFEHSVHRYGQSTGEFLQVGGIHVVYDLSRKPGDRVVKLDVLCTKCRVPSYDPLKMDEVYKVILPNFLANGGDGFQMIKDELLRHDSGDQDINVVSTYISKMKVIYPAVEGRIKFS

[2] = target: T2, CD73 on U138 human neuroglioma cells (Homo sapiens, UniProt P21589); test: CD73 Cell-Based Assay; settings: U138 cells, AMP substrate, 2 hours at 37° C., inorganic phosphate by malachite green
T2 construct: U138 cells were obtained from ATCC and cultured in DMEM with 10% FBS; host or cells: U138 human neuroglioma cells
T2 sequence (P21589 27-549): T1 sequence (P21589 27-549)
Method: U138 human neuroglioma cells were used in these experiments. U138 cells were obtained from ATCC and cultured in DMEM with 10% FBS. 2500 cells were seeded into 96-well plate with 100 μL of media the day before the experiment. Cells were washed twice with 200 μL of assay buffer (20 mM HEPES, pH 7.4; 137 mM NaCl; 5.4 mM KCl; 1.3 mM CaCl2); 4.2 mM NaHCO3; 1 mg/mL glucose) to remove residual inorganic phosphate. After washing, 100 μL of buffer was added to each well, then 100 μL of a mixture of AMP substrate (200 μM) and diluted compound was added to each well. The cells were incubated at 37° C. (with 5% CO2) for 2 hours. 50 μL of supernatant was transferred to a 96-well assay plate and the concentration of inorganic phosphate was determined using malachite green reagent (R&D System; Cat: DY996).

Row | IC50 [1] | IC50 [2] | SMILES
1 | 10 to 100 nM | 10 to 100 nM | C[C@H](Nc1nc(Cl)nc2c1ccn2[C@@H]1O[C@H](COCP(=O)(O)O)[C@@H](O)[C@H]1O)c1ccc(F)cc1 [Compound 68, [(2R,3S,4R,5R)-5-[2-chloro-4-[[(1S)-1-(4-fluorophenyl)ethyl]-amino]pyrrolo[2,3-d]-pyrimidin-7-yl]-3,4-dihydroxy-tetrahydro-furan-2-yl]methoxy-methylphosphonic acid]
2 | < 10 nM | < 10 nM | C[C@@H](Nc1nc(Cl)nc2c1ccn2[C@@H]1O[C@H](COCP(=O)(O)O)[C@@H](O)[C@H]1O)c1ccc(F)cc1 [Compound 69, [(2R,3S,4R,5R)-5-[2-chloro-4-[[(1R)-1-(4-fluorophenyl)ethyl]-amino]pyrrolo[2,3-d]-pyrimidin-7-yl]-3,4-dihydroxy-tetrahydro-furan-2-yl]methoxy-methylphosphonic acid]
3 | < 10 nM | < 10 nM | O=P(O)(O)COC[C@H]1O[C@@H](n2ccc3c(NC4CCCC4)nc(Cl)nc32)[C@H](O)[C@@H]1O [Compound 70, [(2R,3S,4R,5R)-5-[2-chloro-4-(cyclopentylamino)pyrrolo[2,3-d]pyrimidin-7-yl]-3,4-dihydroxy-tetrahydrofuran-2-yl]methoxymethylphosphonic acid]
4 | < 10 nM | < 10 nM | N#Cc1nc(NC2CCCC2)c2ccn([C@@H]3O[C@H](COCP(=O)(O)O)[C@@H](O)[C@H]3O)c2n1 [Compound 71, [(2R,3S,4R,5R)-5-[2-cyano-4-(cyclopentyl-amino)pyrrolo[2,3-d]-pyrimidin-7-yl]-3,4-dihydroxy-tetrahydro-furan-2-yl]methoxy-methylphosphonic acid]
5 | < 10 nM | < 10 nM | C[C@H](Nc1nc(C#N)nc2c1ccn2[C@@H]1O[C@H](COCP(=O)(O)O)[C@@H](O)[C@H]1O)c1ccc(F)cc1 [Compound 72, [(2R,3S,4R,5R)-5-[2-cyano-4-[[(1S)-1-(4-fluorophenyl)ethyl]-amino]pyrrolo[2,3-d]-pyrimidin-7-yl]-3,4-dihydroxy-tetrahydro-furan-2-yl]methoxy-methylphosphonic acid]
6 | < 10 nM | < 10 nM | C[C@@H](Nc1nc(C#N)nc2c1ccn2[C@@H]1O[C@H](COCP(=O)(O)O)[C@@H](O)[C@H]1O)c1ccc(F)cc1 [Compound 73, [(2R,3S,4R,5R)-5-[2-cyano-4-[[(1R)-1-(4-fluorophenyl)ethyl]-amino]pyrrolo[2,3-d]-pyrimidin-7-yl]-3,4-dihydroxy-tetrahydro-furan-2-yl]methoxy-methylphosphonic acid]
7 | < 10 nM | 10 to 100 nM | C[C@H](Nc1nc(Cl)nc2c1ccn2[C@@H]1O[C@H](COCP(=O)(O)O)[C@@H](O)[C@H]1O)c1cccc(F)c1 [Compound 74, [(2R,3S,4R,5R)-5-[2-chloro-4-[[(1S)-1-(3-fluorophenyl)ethyl]-amino]pyrrolo[2,3-d]-pyrimidin-7-yl]-3,4-dihydroxy-tetrahydro-furan-2-yl]methoxy-methylphosphonic acid]
8 | < 10 nM | 10 to 100 nM | C[C@H](Nc1nc(C#N)nc2c1ccn2[C@@H]1O[C@H](COCP(=O)(O)O)[C@@H](O)[C@H]1O)c1cccc(F)c1 [Compound 75, [(2R,3S,4R,5R)-5-[2-cyano-4-[[(1S)-1-(3-fluorophenyl)ethyl]-amino]pyrrolo[2,3-d]-pyrimidin-7-yl]-3,4-dihydroxy-tetrahydro-furan-2-yl]methoxy-methylphosphonic acid]
9 | < 10 nM | 10 to 100 nM | C[C@H](Nc1nc(Cl)nc2c1c(F)cn2[C@@H]1O[C@H](COCP(=O)(O)O)[C@@H](O)[C@H]1O)c1ccccc1 [Compound 76, ((((2R,3S,4R,5R)-5-(2-chloro-5-fluoro-4-(((S)-1-phenylethyl)amino)-7H-pyrrolo[2,3-d]pyrimidin-7-yl)-3,4-dihydroxytetrahydrofuran-2-yl)methoxy)methyl)phosphonic acid]
10 | 10 to 100 nM | 10 to 100 nM | CC[C@@H](Nc1nc(Cl)nc2c1ccn2[C@@H]1O[C@H](COCP(=O)(O)O)[C@@H](O)[C@H]1O)c1ccccc1 [Compound 77, [(2R,3S,4R,5R)-5-[2-chloro-4-[[(1R)-1-phenylpropyl]amino]-pyrrolo[2,3-d]-pyrimidin-7-yl]-3,4-dihydroxy-tetrahydro-furan-2-yl]methoxy-methylphosphonic acid]
11 | 10 to 100 nM | < 10 nM | CC(C)[C@@H](Nc1nc(Cl)nc2c1ccn2[C@@H]1O[C@H](COCP(=O)(O)O)[C@@H](O)[C@H]1O)c1ccccc1 [Compound 78]
12 | < 10 nM | 10 to 100 nM | C[C@H](Nc1nc(Cl)nc2c1ccn2[C@@H]1O[C@H](COCP(=O)(O)O)[C@@H](O)[C@H]1O)c1ccccc1F [Compound 79, [(2R,3S,4R,5R)-5-[2-chloro-4-[[(1S)-1-(2-fluorophenyl)ethyl]-amino]pyrrolo[2,3-d]-pyrimidin-7-yl]-3,4-dihydroxy-tetrahydro-furan-2-yl]methoxy-methylphosphonic acid]
13 | < 10 nM | < 10 nM | C[C@H](Nc1nc(C#N)nc2c1ccn2[C@@H]1O[C@H](COCP(=O)(O)O)[C@@H](O)[C@H]1O)c1ccccc1F [Compound 80, [(2R,3S,4R,5R)-5-[2-cyano-4-[[(1S)-1-(2-fluorophenyl)ethyl]-amino]pyrrolo[2,3-d]-pyrimidin-7-yl]-3,4-dihydroxy-tetrahydro-furan-2-yl]methoxy-methylphosphonic acid]
14 | < 10 nM | < 10 nM | C[C@@H](Nc1nc(C#N)nc2c1ccn2[C@@H]1O[C@H](COCP(=O)(O)O)[C@@H](O)[C@H]1O)c1cccc(F)c1 [Compound 81, [(2R,3S,4R,5R)-5-[2-cyano-4-[[(1R)-1-(3-fluorophenyl)ethyl]-amino]pyrrolo[2,3-d]-pyrimidin-7-yl]-3,4-dihydroxy-tetrahydro-furan-2-yl]methoxy-methylphosphonic acid]
15 | 10 to 100 nM | < 10 nM | C[C@@H](Nc1nc(Cl)nc2c1ccn2[C@@H]1O[C@H](COCP(=O)(O)O)[C@@H](O)[C@H]1O)c1cccc(F)c1 [Compound 82, [(2R,3S,4R,5R)-5-[2-chloro-4-[[(1R)-1-(3-fluorophenyl)ethyl]-amino]pyrrolo[2,3-d]-pyrimidin-7-yl]-3,4-dihydroxy-tetrahydro-furan-2-yl]methoxy-methylphosphonic acid]
16 | < 10 nM | < 10 nM | O=P(O)(O)COC[C@H]1O[C@@H](n2ccc3c(NC4CC(F)(F)C4)nc(Cl)nc32)[C@H](O)[C@@H]1O [Compound 83, [(2R,3S,4R,5R)-5-[2-chloro-4-[(3,3-difluoro-cyclobutyl)amino]-pyrrolo[2,3-d]-pyrimidin-7-yl]-3,4-dihydroxy-tetrahydro-furan-2-yl]methoxy-methylphosphonic acid]
17 | < 10 nM | < 10 nM | CC[C@H](Nc1nc(Cl)nc2c1ccn2[C@@H]1O[C@H](COCP(=O)(O)O)[C@@H](O)[C@H]1O)c1ccccc1 [Compound 84, [(2R,3S,4R,5R)-5-[2-chloro-4-[[(1S)-1-phenylpropyl]amino]-pyrrolo[2,3-d]-pyrimidin-7-yl]-3,4-dihydroxy-tetrahydro-furan-2-yl]methoxy-methylphosphonic acid]
18 | < 10 nM | < 10 nM | CC(C)[C@H](Nc1nc(Cl)nc2c1ccn2[C@@H]1O[C@H](COCP(=O)(O)O)[C@@H](O)[C@H]1O)c1ccccc1 [Compound 85, [(2R,3S,4R,5R)-5-[2-chloro-4-[[(1S)-2-methyl-1-phenyl-propyl]amino]pyrrolo-[2,3-d]pyrimidin-7-yl]-3,4-dihydroxy-tetrahydrofuran-2-yl]methoxymethyl-phosphonic acid]
19 | 100 to 1000 nM | 100 to 1000 nM | Nc1nc(Cl)nc2c1ccn2[C@@H]1O[C@H](COCP(=O)(O)O)[C@@H](O)[C@H]1O [Compound 86, [(2R,3S,4R,5R)-5-(4-amino-2-chloro-pyrrolo[2,3-d]-pyrimidin-7-yl)-3,4-dihydroxy-tetrahydro-furan-2-yl]methoxy-methylphosphonic acid]
20 | < 10 nM | < 10 nM | C[C@@H](Nc1nc(Cl)nc2c1ccn2[C@@H]1O[C@H](COCP(=O)(O)O)[C@@H](O)[C@H]1O)c1ccccc1F [Compound 87, [(2R,3S,4R,5R)-5-[2-chloro-4-[[(1R)-1-(2-fluorophenyl)ethyl]-amino]pyrrolo[2,3-d]-pyrimidin-7-yl]-3,4-dihydroxy-tetrahydro-furan-2-yl]methoxy-methylphosphonic acid]
